Test results from BindingDB's records for patent US12187742 (Xrad Therapeutics, 2025).

Molecular target: DNA-dependent protein kinase catalytic subunit (Homo sapiens, UniProt P78527)
Test: DNA-PK Enzyme-Linked Immunosorbent Assay
Protocol: On day one, coat 96-well plate (ThermoFisher. Cat #: 442404) with GST-p53 (1-101) peptide (purified by Pharmaron, BCS department) by diluting 3 μg of GST-p53 each well with 0.1 M Na2CO3/NaHCO3, pH 9.6. Incubate the plate overnight at 4° C. The second day, remove coating buffer, wash 2× with PBST (1×PBS containing 0.1% Tween-20). Then add DNA-PK enzyme solution (Invitrogen, #PR9107A; the final DNA-PK concentration is 0.1 μg/mL), series dilution compounds (the final top concentration is 100 nM, 3 fold series dilution, with total 10 doses) and ATP solution (the final ATP concentration is 20 μM) to the 96-well plate. Incubate the plate at 25° C. for 1 hour. Then wash 3× with PBST (1×PBS containing 0.1% Tween-20). Block the plate with PBST+ 1% BSA at 4° C. overnight. The third day, wash 4× with PBST (1×PBS containing 0.1% Tween-20). Then add Phospho-p53 primary antibody (cell signaling Technology, #9286, Phospho-p53 (Ser15) (16G8) Mouse mAb) (1/1000) to each well. Seal with plate and incubate the plate for 1 h at 37° C. Wash 4× with PBST (1×PBS containing 0.1% Tween-20), add 100 μL of HRP-linked secondary antibody (Cell signaling Technology, #7076, Anti-mouse IgG, HRP-linked Antibody) (1/1000) to each well. Seal with tape and incubate the plate for 30 min at 37° C. Wash 4× with PBST (1×PBS containing 0.1% Tween-20), add 100 μL of TMB (Cell signaling Technology, #7004) substrate to each well. Seal with tape and incubate the plate for 10 min at 37° C. Then add 100 μL of Stop solution (Cell signaling Technology, #7002) to each well. Read the plate at 450 nm to detect absorption.

Sequence of DNA-dependent protein kinase catalytic subunit (P78527 whole entry): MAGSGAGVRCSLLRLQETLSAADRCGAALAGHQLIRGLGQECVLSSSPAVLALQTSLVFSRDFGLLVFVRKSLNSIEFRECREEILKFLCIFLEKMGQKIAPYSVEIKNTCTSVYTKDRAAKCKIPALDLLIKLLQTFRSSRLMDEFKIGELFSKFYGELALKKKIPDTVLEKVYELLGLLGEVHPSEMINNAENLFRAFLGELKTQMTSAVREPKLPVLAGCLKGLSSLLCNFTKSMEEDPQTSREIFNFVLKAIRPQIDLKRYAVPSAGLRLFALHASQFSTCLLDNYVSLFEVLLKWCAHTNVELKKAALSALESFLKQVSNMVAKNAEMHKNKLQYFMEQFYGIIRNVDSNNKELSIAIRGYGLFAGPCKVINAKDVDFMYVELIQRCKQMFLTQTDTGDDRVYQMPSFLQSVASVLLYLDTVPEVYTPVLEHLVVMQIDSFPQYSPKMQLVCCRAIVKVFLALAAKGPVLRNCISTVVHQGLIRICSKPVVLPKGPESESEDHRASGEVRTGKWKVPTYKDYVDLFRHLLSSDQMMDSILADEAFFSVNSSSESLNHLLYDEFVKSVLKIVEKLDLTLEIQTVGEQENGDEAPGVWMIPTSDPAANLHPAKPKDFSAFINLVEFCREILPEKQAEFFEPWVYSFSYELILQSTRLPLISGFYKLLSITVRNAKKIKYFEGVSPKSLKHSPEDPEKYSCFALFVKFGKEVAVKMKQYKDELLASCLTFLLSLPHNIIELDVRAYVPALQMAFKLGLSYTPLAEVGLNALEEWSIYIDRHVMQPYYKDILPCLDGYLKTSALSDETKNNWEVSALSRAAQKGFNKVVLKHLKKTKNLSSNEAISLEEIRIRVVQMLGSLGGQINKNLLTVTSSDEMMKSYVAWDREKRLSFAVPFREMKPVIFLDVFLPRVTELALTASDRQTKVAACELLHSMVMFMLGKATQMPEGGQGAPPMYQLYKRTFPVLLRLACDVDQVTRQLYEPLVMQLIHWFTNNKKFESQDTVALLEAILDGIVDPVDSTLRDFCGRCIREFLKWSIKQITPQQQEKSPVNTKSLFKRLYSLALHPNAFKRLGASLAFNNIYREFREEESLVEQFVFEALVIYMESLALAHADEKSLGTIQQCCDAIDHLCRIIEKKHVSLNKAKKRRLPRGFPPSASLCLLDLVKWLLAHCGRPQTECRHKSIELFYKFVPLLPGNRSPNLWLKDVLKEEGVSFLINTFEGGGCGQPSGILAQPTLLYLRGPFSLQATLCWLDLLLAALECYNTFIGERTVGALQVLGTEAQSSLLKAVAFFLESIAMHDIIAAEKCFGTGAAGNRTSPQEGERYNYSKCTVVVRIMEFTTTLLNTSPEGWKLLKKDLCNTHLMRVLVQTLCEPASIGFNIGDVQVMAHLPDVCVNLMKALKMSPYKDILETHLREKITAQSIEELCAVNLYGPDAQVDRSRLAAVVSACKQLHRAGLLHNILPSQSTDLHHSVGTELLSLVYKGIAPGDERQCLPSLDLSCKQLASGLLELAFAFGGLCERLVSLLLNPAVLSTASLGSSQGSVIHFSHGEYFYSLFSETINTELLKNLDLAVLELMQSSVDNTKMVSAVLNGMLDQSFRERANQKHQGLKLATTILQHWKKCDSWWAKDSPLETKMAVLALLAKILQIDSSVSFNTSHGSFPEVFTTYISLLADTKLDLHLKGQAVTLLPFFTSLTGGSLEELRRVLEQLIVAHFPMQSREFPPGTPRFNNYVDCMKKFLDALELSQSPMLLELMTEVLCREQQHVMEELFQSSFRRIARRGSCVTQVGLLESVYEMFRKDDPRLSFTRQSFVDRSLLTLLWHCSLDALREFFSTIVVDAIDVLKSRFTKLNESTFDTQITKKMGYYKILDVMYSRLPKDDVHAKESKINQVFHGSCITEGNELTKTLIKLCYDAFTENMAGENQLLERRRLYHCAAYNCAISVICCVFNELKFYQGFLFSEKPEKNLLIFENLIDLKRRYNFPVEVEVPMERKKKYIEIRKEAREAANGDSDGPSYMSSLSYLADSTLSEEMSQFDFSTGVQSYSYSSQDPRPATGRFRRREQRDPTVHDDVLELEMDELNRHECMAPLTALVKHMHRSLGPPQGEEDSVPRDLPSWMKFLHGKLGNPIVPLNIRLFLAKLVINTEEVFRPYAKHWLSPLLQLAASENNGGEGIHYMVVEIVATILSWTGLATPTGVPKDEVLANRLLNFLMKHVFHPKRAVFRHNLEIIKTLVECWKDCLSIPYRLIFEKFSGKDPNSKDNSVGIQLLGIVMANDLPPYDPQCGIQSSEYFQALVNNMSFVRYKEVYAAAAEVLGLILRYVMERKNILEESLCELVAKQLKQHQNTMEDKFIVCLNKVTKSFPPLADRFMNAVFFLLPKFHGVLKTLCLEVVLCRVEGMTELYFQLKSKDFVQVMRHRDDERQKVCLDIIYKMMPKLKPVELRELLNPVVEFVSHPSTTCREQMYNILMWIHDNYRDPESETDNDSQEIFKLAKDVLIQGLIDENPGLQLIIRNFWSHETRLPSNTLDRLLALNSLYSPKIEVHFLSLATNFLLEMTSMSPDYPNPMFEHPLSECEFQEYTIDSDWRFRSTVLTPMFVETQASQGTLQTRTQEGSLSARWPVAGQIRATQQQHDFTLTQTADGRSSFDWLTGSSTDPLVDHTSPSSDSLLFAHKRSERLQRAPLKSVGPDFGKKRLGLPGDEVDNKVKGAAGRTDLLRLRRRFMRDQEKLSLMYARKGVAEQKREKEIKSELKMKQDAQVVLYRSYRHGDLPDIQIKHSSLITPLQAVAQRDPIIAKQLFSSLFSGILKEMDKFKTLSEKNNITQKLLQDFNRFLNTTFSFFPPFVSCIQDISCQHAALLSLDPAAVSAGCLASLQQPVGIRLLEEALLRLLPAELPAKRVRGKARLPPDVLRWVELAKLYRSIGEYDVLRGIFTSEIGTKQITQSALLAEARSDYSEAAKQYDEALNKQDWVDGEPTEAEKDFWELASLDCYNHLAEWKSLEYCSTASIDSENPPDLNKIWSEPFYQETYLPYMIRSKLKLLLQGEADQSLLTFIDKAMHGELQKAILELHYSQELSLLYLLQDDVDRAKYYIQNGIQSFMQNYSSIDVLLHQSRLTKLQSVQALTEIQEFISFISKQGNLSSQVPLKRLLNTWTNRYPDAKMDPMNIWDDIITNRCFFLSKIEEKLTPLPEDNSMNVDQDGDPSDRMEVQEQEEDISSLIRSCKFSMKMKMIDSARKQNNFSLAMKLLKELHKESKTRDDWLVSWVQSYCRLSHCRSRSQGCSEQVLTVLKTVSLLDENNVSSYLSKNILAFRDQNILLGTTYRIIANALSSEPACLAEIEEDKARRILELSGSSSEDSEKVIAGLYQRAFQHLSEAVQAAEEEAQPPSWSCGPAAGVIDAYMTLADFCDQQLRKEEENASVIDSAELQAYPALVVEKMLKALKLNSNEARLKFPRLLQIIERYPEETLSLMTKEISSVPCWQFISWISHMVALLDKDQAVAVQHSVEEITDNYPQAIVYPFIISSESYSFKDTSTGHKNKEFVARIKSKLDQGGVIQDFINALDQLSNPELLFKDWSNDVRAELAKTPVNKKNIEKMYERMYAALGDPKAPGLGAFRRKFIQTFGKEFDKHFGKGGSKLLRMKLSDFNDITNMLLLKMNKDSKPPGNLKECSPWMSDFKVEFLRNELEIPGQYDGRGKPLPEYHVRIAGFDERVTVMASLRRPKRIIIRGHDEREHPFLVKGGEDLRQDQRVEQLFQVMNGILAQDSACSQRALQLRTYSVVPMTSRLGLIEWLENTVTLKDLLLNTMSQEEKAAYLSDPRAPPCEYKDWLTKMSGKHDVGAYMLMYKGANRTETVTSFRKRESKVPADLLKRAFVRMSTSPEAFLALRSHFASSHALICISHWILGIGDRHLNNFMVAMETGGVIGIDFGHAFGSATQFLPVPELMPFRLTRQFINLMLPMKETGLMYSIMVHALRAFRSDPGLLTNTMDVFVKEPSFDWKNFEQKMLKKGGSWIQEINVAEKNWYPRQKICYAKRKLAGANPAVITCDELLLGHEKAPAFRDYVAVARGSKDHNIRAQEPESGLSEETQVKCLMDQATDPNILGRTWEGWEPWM

Question: Which IC50 does the source give for `CN(C)CCCOc1ncc(-c2ccc3ncc4c(c3c2)C2(CC2)C(=O)N4C)cc1NS(=O)(=O)c1cccnc1` [US12187742, Example 85] here?
Answer: < 0.5 nM

Question: Which IC50 does the source give for `CN(C)CCCOc1ncc(-c2ccc3ncc4c(c3c2)C2(CC2)C(=O)N4C)cc1NS(=O)(=O)c1cccs1` [US12187742, Example 120] here?
Answer: < 0.5 nM

Question: How did the IC50 turn out when `COc1ncc(-c2ccc3ncc4c(c3c2)C2(CC2)C(=O)N4C)cc1NS(=O)(=O)c1cccc(C(C)O)c1` (configuration not stated) [US12187742, Example 18] was run?
Answer: < 0.5 nM

Question: With `CN(C)CCCOc1ncc(-c2ccc3ncc4c(c3c2)C2(CC2)C(=O)N4C)cc1NS(=O)(=O)c1ccc(C(F)(F)F)cc1` [US12187742, Example 108] as the molecule, how does the IC50 read?
Answer: < 0.5 nM

Question: `CN1CC=C(c2ncc(-c3ccc4ncc5c(c4c3)C3(CCC3)C(=O)N5C)cc2NS(C)(=O)=O)CC1` [US12187742, Example 276] was tested. Which IC50 did it give?
Answer: < 0.5 nM

Question: For `CN1C(=O)C2(CC2)c2c1cnc1ccc(-c3cnc(OCCCN4CCCC4)c(NS(=O)(=O)C4CC4)c3)cc21` [US12187742, Example 60], which IC50 is on record?
Answer: < 0.5 nM

Question: `CC(C)NCCOc1ncc(-c2ccc3ncc4c(c3c2F)C2(CCC2)C(=O)N4C)cc1NS(C)(=O)=O` [US12187742, Example 556] was tested. Which IC50 did it give?
Answer: < 0.5 nM
